Results on one molecule are retold here after article PMC6386767, “Characterization of recombinant fructose-1,6-bisphosphatase gene mutations: evidence of inhibition/activation of FBPase protein by gene mutation” (Bioscience Reports, 2019).

For test [1], the target named is T1, pig kidney FBPase Y113A (Sus scrofa, UniProt P00636, Y114A).
T1 construct: His6 (C); made in house; host or cells: Escherichia coli BL21 (DE3)
T1 sequence (P00636 1-338 Y114A): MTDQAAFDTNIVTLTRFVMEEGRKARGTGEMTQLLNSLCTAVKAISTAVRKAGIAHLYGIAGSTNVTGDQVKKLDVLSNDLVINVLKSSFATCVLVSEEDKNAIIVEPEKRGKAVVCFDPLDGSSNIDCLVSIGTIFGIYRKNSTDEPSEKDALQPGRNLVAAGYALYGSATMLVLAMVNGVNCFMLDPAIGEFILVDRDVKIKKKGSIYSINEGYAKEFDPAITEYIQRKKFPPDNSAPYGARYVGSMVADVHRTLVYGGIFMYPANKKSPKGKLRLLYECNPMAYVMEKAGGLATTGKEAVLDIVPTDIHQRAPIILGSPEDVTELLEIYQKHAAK
Kind of test: Malachite Green kinetic assay, Y113A mutant. Format: biochemical. As to conditions: enzyme Y113A vs WT. The protocol: (§1) For the kinetic assay, a standard curve was obtained from an ammonium molybdate Malachite Green inorganic phosphate assay (OD660 nm). The purified FBPase protein was dialyzed ×3 in 50 mM Tris buffer at pH 7.5 at 4°C. For enzyme concentration, absorbency values were recorded for all five mutant proteins using spectrophotometer readings at OD280 nm. To quantitate enzyme concentration, the enzymes were calculated based on the quantity of micrograms per microliter (µg/µl) present. Final concentration of WT and mutant enzymes was between 2.5 and 5.0 µg/µl. Using a colorimetric assay as described below, specific activity (SA) was determined. At last, all kinetic and binding assays described below were performed in 50 mM Tris pH 7.5.
(§2) Kinetic assays were performed for WT and mutant enzymes to identify functional differences between the WT enzyme and the mutants. […] Readings recorded at OD660 nm for each enzyme were applied to the standard curve equation. Micromoles of inorganic phosphate were calculated to determine the SA of mutant enzymes.
(§3) For each clone, the kinetic assay was performed in duplicates of triplicates. Malachite Geen was used to detect inorganic phosphate. Two separate clones were processed independently of the same mutant. All kinetic data were fit to symmetric sigmoidal curve using Origin software based on methods previously described [[27–29]]. More specifically, for kinetic parameters established via curve fitting (shown in Tables 1–3; and in Figure 5A,B), the equation y = d + (a − d)/1 + (x/c)^b was used where ‘x’ is represented by apparent Michelis constant (Km) when y = Vmax. […] P-values were significant at <0.001 and represent a comparison with the WT enzyme.

In test [2] the target is T2, pig kidney FBPase K112A (Sus scrofa, UniProt P00636, K113A).
T2 construct: His6 (C); made in house; host or cells: Escherichia coli BL21 (DE3)
T2 sequence (P00636 1-338 K113A): T1 sequence (P00636 1-338 Y114A) with K113A, A114Y
Kind of test: Malachite Green kinetic assay, K112A mutant. In kind it is biochemical. As to conditions: enzyme K112A vs WT. The method, then:
as §1, §2, §3

Positions count from the first letter of the chain named.

`O=C(COP(=O)(O)O)[C@@H](O)[C@H](O)[C@H](O)COP(=O)(O)O` [FBP, fructose-1,6-bisphosphate]: the “greater binding to the FBP substrate compared with WT” value in test [1] and in test [2] was 2 × each time.
